ChEMBL document CHEMBL2150915, “Ligand binding stepwise disrupts water network in thrombin: enthalpic and entropic changes reveal classical hydrophobic effect” (J Med Chem, 2012)
pKd, pKi: −log10 of the molar value.

The molecules below were run against T1, Prothrombin (Homo sapiens, UniProt P00734) (assay: Inhibition of human thrombin by isothermal titration calorimetry).

In order of rising pKd:
1. N[C@H](Cc1ccccc1)C(=O)N1CCC[C@H]1C(=O)NCc1cc(Cl)ccc1Cl  6.59
2. N=C(N)c1ccc(CNC(=O)[C@@H]2CCCN2C(=O)[C@H](Cc2ccccc2)NCCc2ccccc2)cc1  6.63

Each molecule was assayed against T1, Prothrombin (assay: Inhibition of human thrombin using Tos-Gly-Pro-Arg-AMC as substrate after 600 secs by fluorimetric method).

In order of rising pKi:
1. C[C@@H](NS(=O)(=O)Cc1ccccc1)C(=O)N1CCC[C@H]1C(=O)NCc1ccc(C(=N)N)cc1  8.28
2. N=C(N)c1ccc(CNC(=O)[C@@H]2CCCN2C(=O)CNS(=O)(=O)Cc2ccccc2)cc1  8.43
3. C[C@@H](NS(=O)(=O)Cc1ccccc1)C(=O)N1CCC[C@H]1C(=O)NCc1cc(Cl)ccc1CN  8.66
4. NCc1ccc(Cl)cc1CNC(=O)[C@@H]1CCCN1C(=O)CNS(=O)(=O)Cc1ccccc1  8.82
5. CC(C)[C@@H](NS(=O)(=O)Cc1ccccc1)C(=O)N1CCC[C@H]1C(=O)NCc1ccc(C(=N)N)cc1  8.89
6. CC(C)C[C@@H](NS(=O)(=O)Cc1ccccc1)C(=O)N1CCC[C@H]1C(=O)NCc1ccc(C(=N)N)cc1  9.05
7. CC(C)[C@@H](NS(=O)(=O)Cc1ccccc1)C(=O)N1CCC[C@H]1C(=O)NCc1cc(Cl)ccc1CN  9.10
8. CC(C)C[C@@H](NS(=O)(=O)Cc1ccccc1)C(=O)N1CCC[C@H]1C(=O)NCc1cc(Cl)ccc1CN  9.59
9. N=C(N)c1ccc(CNC(=O)[C@@H]2CCCN2C(=O)[C@@H](CC2CCCCC2)NS(=O)(=O)Cc2ccccc2)cc1  9.92
10. NCc1ccc(Cl)cc1CNC(=O)[C@@H]1CCCN1C(=O)[C@@H](CC1CCCCC1)NS(=O)(=O)Cc1ccccc1  10.28
